Measurements reported in patent US8357635B2, “Microbiocides” (Syngenta Crop Protection LLC, priority 2009, dated 2013).
Where “and” joins values, the source holds several entries; their conditions need not be identical. Identical values can stand only once.

What was measured:
[1] = tested on: Botrytis cinerea; assay: Action against Botrytis cinerea - fungal growth assay; assay type: cell-based; conditions: 0.002% active ingredient, PDB broth, 24° C., photometric after 3-4 days
Method: (§1) Conidia of the fungus from cryogenic storage was directly mixed into nutrient broth (PDB potato dextrose broth). After placing a (DMSO) solution of the test compounds (0.002% active ingredient) into a microtiter plate (96-well format) the nutrient broth containing the fungal spores was added. The test plates were incubated at 24° C. and the inhibition of growth was measured photometrically after 3-4 days. The activity of a compound was expressed as fungal growth inhibition (0=no growth inhibition, ratings of 80% to 99% mean good to very good inhibition, 100%=complete inhibition).

[2] = tested on: Mycosphaerella arachidis (Cercospora arachidicola); assay: Action against Mycosphaerella arachidis (early leaf spot of groundnut) - fungal growth assay; assay type: cell-based; conditions: 0.002% active ingredient, PDB broth, 24° C., photometric after 6-7 days
Method: as §1, with “storage were” for “storage was”, “after 6-7” for “after 3-4”

[3] = tested on: Septoria tritici; assay: Action against Septoria tritici - fungal growth assay; assay type: cell-based; conditions: Zymoseptoria tritici; 0.002% active ingredient, PDB broth, 24° C., photometric after 72 hrs
Method: as §1, with “storage were” for “storage was”, “was determined” for “was measured”, “after 72 hrs.” for “after 3-4 days.”

[4] = tested on: Monographella nivalis (Fusarium nivale, Microdochium nivale); assay: Action against Monographella nivalis (snow mould) - fungal growth assay; assay type: cell-based; conditions: 0.002% active ingredient, PDB broth, 24° C., photometric after 72 hrs
Method: as §1, with “storage were” for “storage was”, “a DMSO-solution” for “a (DMSO) solution”, “after 72 hrs” for “after 3-4 days. The activity of a compound was expressed as fungal growth inhibition”

[5] = tested on: Erysiphe graminis f.sp. tritici; assay: Action against Erysiphe graminis f.sp. tritici (wheat powdery mildew), wheat leaf segments; assay type: in vivo; conditions: Blumeria graminis, foliar, 168 h; 0.02% active ingredient sprayed on wheat leaf segments, assessed 7 days after inoculation; read-out: preventive fungicidal activity (inhibition)
Method: (§2) Wheat leaf segments were placed on agar in multiwell plates (24-well format) and sprayed with test solutions (0.02% active ingredient). After drying, the leaf disks were inoculated with a spore suspension of the fungus. After appropriate incubation the activity of a compound was assessed 7 days after inoculation as preventive fungicidal activity.

[6] = tested on: Puccinia recondita; assay: Protective action against Puccinia recondita (brown rust) on wheat leaf segments; assay type: in vivo; conditions: foliar, 192 h, 0.02% active ingredient sprayed on wheat leaf segments, assessed 8 days after inoculation, read-out: preventive fungicidal activity (inhibition)
Method: as §2, with “8” for “7”

[7] = tested on: Pyrenophora teres; assay: Action against Pyrenophora teres (net blotch) on barley leaf segments; assay type: in vivo; conditions: foliar, 96 h, 0.02% active ingredient sprayed on barley leaf segments, assessed 4 days after inoculation, read-out: preventive fungicidal activity (inhibition)
Method: as §2, with “Barley” for “Wheat”, “4” for “7”

[8] = tested on: Puccinia recondita; assay: Curative action against Puccinia recondita (brown rust) on wheat leaf segments; assay type: in vivo; conditions: foliar, 0.02% active ingredient sprayed one day after inoculation on wheat leaf segments, assessed 8 days after inoculation, read-out: curative fungicidal activity (inhibition)
Method: Wheat leaf segments were placed on agar in multiwell plates (24-well format) and inoculated with a spore suspension of the fungus. One day after inoculation the leaf segments were sprayed with test solutions (0.02% active ingredient). After appropriate incubation the activity of a compound was assessed 8 days after inoculation as curative fungicidal activity.

[9] = tested on: Rhizoctonia solani; assay: Action against Rhizoctonia solani - fungal growth assay; assay type: cell-based; conditions: 0.002% active ingredient, PDB broth, 24° C., photometric after 3-4 days
Method: as §1, with “Mycelial fragments of a newly grown liquid culture” for “Conidia”, “were” for “from cryogenic storage was”

Row | Structure (SMILES) | melting point | inhibition at 0.002 % strength [1] | inhibition at 0.002 % strength [2] | inhibition at 0.002 % strength [3] | inhibition at 0.002 % strength [4] | inhibition at 0.02 % strength [5] | inhibition at 0.02 % strength [6] | inhibition at 0.02 % strength [7] | inhibition at 0.02 % strength [8] | inhibition at 0.002 % strength [9]
1 | CON(C(=O)c1cn(C)nc1C(F)F)C(C)[C@@H]1C[C@H]1c1c(Cl)sc(Cl)c1Cl (relative stereo) [Compound 1.063, trans 3-Difluoromethyl-1-methyl-1H-pyrazole-4-carboxylic acid methoxy-{1-[2-(2,4,5-trichloro-thiophen-3-yl)-cyclopropyl]-ethyl}-amide] | 110 to 113 °C and 110 to 130 °C | – | – | – | – | – | – | – | – | –
2 | CON(C(=O)c1cn(C)nc1C(F)F)C(C)C1CC1c1ccc(Cl)cc1Cl (single isomer, unassigned) [Compound 1.018A, trans-3-difluoromethyl-1-methyl-1H-pyrazole-4-carboxylic acid {1-[2-(2,4-dichlorophenyl)-cyclopropyl]-ethyl}-methoxy-amide] | 133 to 135 °C | – | – | – | – | – | – | – | – | –
3 | CON(C(=O)c1cn(C)nc1C(F)F)C(C)C1CC1c1ccc(Cl)cc1Cl (single isomer, unassigned) [Compound 1.018B, trans-3-difluoromethyl-1-methyl-1H-pyrazole-4-carboxylic acid {1-[2-(2,4-dichlorophenyl)-cyclopropyl]-ethyl}-methoxy-amide] | 142 to 144 °C | – | – | – | – | – | – | – | – | –
4 | CON(C(=O)c1cn(C)nc1C(F)F)C(C)C1CC1c1ccccc1Cl (stereo not drawn) [Compound 1.011A, trans 3-difluoromethyl-1-methyl-1H-pyrazole-4-carboxylic acid {1-[2-(2-chloro-phenyl)-cyclopropyl]-ethyl}-methoxy-amide] | – | ≥ 80% | ≥ 80% | ≥ 80% | ≥ 80% | ≥ 80% | ≥ 80% | ≥ 80% | – | –
5 | CON(C(=O)c1cn(C)nc1C(F)F)C(C)C1CC1c1ccc(Cl)cc1Cl (stereo not drawn) [Compound 1.018A, trans-3-difluoromethyl-1-methyl-1H-pyrazole-4-carboxylic acid {1-[2-(2,4-dichlorophenyl)-cyclopropyl]-ethyl}-methoxy-amide] | – | ≥ 80% | ≥ 80% | ≥ 80% | ≥ 80% | ≥ 80% | ≥ 80% | ≥ 80% | – | –
6 | CON(C(=O)c1cn(C)nc1C(F)F)C(C)C1CC1c1ccc(Cl)cc1Cl (stereo not drawn) [Compound 1.018B, trans-3-difluoromethyl-1-methyl-1H-pyrazole-4-carboxylic acid {1-[2-(2,4-dichlorophenyl)-cyclopropyl]-ethyl}-methoxy-amide] | – | – | – | – | – | – | – | – | ≥ 80% | –
7 | CON(C(=O)c1cn(C)nc1C(F)F)C(C)C1CC1c1c(F)cccc1Cl (stereo not drawn) [Compound 1.027, trans 3-difluoromethyl-1-methyl-1H-pyrazole-4-carboxylic acid{1-[2-(2-chloro-6-fluoro-phenyl)-cyclopropyl]-ethyl}-methoxy-amide] | – | ≥ 80% | ≥ 80% | ≥ 80% | ≥ 80% | ≥ 80% | ≥ 80% | ≥ 80% | ≥ 80% | –
8 | CON(C(=O)c1cn(C)nc1C(F)F)C(C)C1CC1c1c(Cl)cccc1Cl (stereo not drawn) [Compound 1.028, trans-3-difluoromethyl-1-methyl-1H-pyrazole-4-carboxylic acid {1-[2-(2,6-dichlorophenyl)-cyclopropyl]-ethyl}-methoxy-amide] | – | ≥ 80% | ≥ 80% | ≥ 80% | ≥ 80% | ≥ 80% | ≥ 80% | ≥ 80% | ≥ 80% | ≥ 80%
9 | CON(C(=O)c1cn(C)nc1C(F)F)C(C)C1CC1c1c(Cl)cc(Cl)cc1Cl (stereo not drawn) [Compound 1.034, trans-3-difluoromethyl-1-methyl-1H-pyrazole-4-carboxylic acid {1-[2-(2,4,6-trichlorophenyl)-cyclopropyl]-ethyl}-methoxy-amide] | – | ≥ 80% | ≥ 80% | ≥ 80% | ≥ 80% | ≥ 80% | ≥ 80% | ≥ 80% | ≥ 80% | ≥ 80%
